These results are taken from patent US6121264A, “Imidazole-substituted quinoxalinedione derivatives” (Yamanouchi Pharmaceutical Co., Ltd., priority 1996, dated 2000).

One series deals with NMDA receptors. As to conditions: in vivo; cited from earlier work.
Another series has as its system neuronal culture system. The settings on record: compound alone; cited from earlier work.
In series [1] the test system is rat fetal hippocampus neurons. As to the kind of experiment: Kainic acid neurotoxicity inhibition (LDH release) in primary culture of rat fetal hippocampus neurons. It counts as cell-based. As to conditions: Neuron, 300 μM kainic acid, 24 hours, read-out: Anti-kainic acid neurotoxicity (IC50). The text has this:
2) Measurement of kainic acid neurotoxicity inhibition activity:
The action of the compound of the present invention to inhibit kainic acid neurotoxicity was examined using a primary culture system of rat fetal hippocampus neurons.
Hippocampus was excised from the brain of a rat of 18 to 20 days of age and treated with enzymes papain and DNase I to disperse the cells. The cells were suspended in MEM containing 10% serum and inoculated in 4×10^5 cells/cm^2 portions into wells of a 48 well plate which has been treated in advance with poly-I-lysine, and the medium was exchanged with serum-free medium 24 hours thereafter. The medium exchange was carried out twice a week. The cells cultured for 6 days or more were used in the following test.
(2) Kainic acid neurotoxicity inhibition
The neurotoxicity was expressed as the activity of lactate dehydrogenase released in the culture medium caused by cell death. Cells exposed for 24 hours to serum-free medium containing 300 μM of kainic acid were used as the control, and the action of each of the same test compounds used in the above item 1) to inhibit neuronal death caused by kainic acid was evaluated by allowing each compound to act upon the neurons for 24 hours simultaneously with 300 μM of kainic acid.
Background: LDH leaks from cells whose membrane has failed.

For series [2], the target named is AMPA receptor. As to the kind of experiment: [3H]-AMPA binding inhibition activity. The settings on record: about 45 nM [3H]-AMPA, rat cerebral membrane, 45 minutes on ice water. Here is the method: 1) Measurement of [^3 H]-AMPA binding inhibition activity:
A 0.5 ml portion in total volume of a reaction solution containing about 45 nM of [^3 H]-AMPA [2-amino-3-(3-hydroxy-5-methyl-4-isoxazole)propionicacid], about […] of rat cerebral membrane samples and each of the test compounds was allowed to undergo 45 minutes of the reaction on ice water. The amount of [^3 H]-AMPA bonded to the AMPA receptor was measured by a filtration method. The portion substituted by 10 μM of quisqualic acid among the total amount of binding was defined as the amount of specific binding. Evaluation of the test compounds was carried out by calculating the ratio of binding inhibition exerted on the specific binding.
As the test compounds, the compound of Example 3, which will be described later, was used as the compound of the present invention, and a compound described as Example 1 in the aforementioned reference 1, represented by the following formula (to be referred to as comparative compound 1 hereinafter), was used as a comparative compound. […]

Series [3] addresses AMPA receptor. As to conditions: Data reported at the American Society of Neuroscience (1996); read-out: AMPA binding inhibition activity (IC50); cited from earlier work.
Another series concerns DBA/2 mice. The series can be described thus: Audiogenic seizure inhibition action in DBA/2 mice. It counts as in vivo. The settings on record: Mus musculus, ip, 0.25 h; DBA/2 male mice, intraperitoneal injection 15 minutes before sound stimulus (12 kHz, 120 dB); read-out: minimum effective dose (MED), inhibition of audiogenic seizure. Here is the method:
3) Measurement of audiogenic seizure inhibition action in DBA/2 mice
In a sound proof box, a total of 10 male mice of 21 to 28 days of age were exposed to auditory and stimulation by the sound of 12 kHz and 120 dB was applied for 1 minute or until the mice fell into a fit of convulsions. A compound to be tested (the compound of Example 3 which will be described later) was suspended in 0.5% methyl cellulose solution or dissolved in physiological saline and administered by intraperitoneal injection 15 minutes before the sound stimulus. The drug efficacy was evaluated by the presence or absence of spasm, and the minimum effective dose (MED) was calculated.

The test system of the next series is glycine receptor. The settings on record: in vivo; cited from earlier work.
Series [4] deals with AMPA receptor. The settings on record: in vivo; cited from earlier work.

Molecules are shown by their SMILES. Where two headings read alike, the source gives them in different places.

Regarding `NC(CCCP(=O)(O)O)C(=O)O` (stereo not drawn) [2-amino-5-phosphonovalerianic acid], the “effect in nervous disorders induced by NMDA and in animal models of epilepsy and cerebral ischemia (in words)” value in the series with NMDA receptors is given as “effective”. On to `NC(CCCCCP(=O)(O)O)C(=O)O` (stereo not drawn) [2-amino-7-phosphonoheptanoic acid], for which, in the series with NMDA receptors, the “effect in nervous disorders induced by NMDA and in animal models of epilepsy and cerebral ischemia (in words)” value is “effective”. Consider `Cc1onc(O)c1CC(N)C(=O)O` (stereo not drawn) [AMPA, 2-amino-3-(3-hydroxy-5-methyl-4-isoxazolyl)propionic acid], for which, in the series with neuronal culture system, the “action in neurotoxicity test (in words)” value is listed as “weak action”. In general, IC50 refers to the point on the concentration scale where inhibition reaches its midpoint. For `O=C(O)Cn1c(=O)c(=O)[nH]c2cc([N+](=O)[O-])c(-n3ccnc3)cc21` [Comparative compound 1], the results for the IC50 (in series [1]; at AMPA receptor [2]) were 800 nM and 140 nM, respectively.

For the compound `O=c1[nH]c2cc(C(F)(F)F)c(N3CCOCC3)cc2n(CP(=O)(O)O)c1=O` [Comparative compound 2], on AMPA receptor [3], the IC50 was 150 nM. `O=c1[nH]c2cc([N+](=O)[O-])c(-n3ccnc3)cc2n(CCCCOS(=O)(=O)O)c1=O` [Example 3, 4-[2,3-dioxo-7-(1H-imidazol-1-yl)-6-nitro-1,2,3,4-tetrahydroquinoxalin-1-yl]butanesulfate]: the IC50 in series [1] was 160 nM; at AMPA receptor [2], 39 nM. Besides, in the series with DBA/2 mice, the minimal effective dose was found to be 3 mg/kg.

As to `NC1CCN(O)C1=O` (stereo not drawn) [HA-966], the “effect in experimental animal model suffering from cerebral ischemia (in words)” value with glycine receptor was “useful”. Take `NS(=O)(=O)c1cccc2c1c([N+](=O)[O-])cc1[nH]c(=O)c(=O)[nH]c12` [NBQX]: the “effect in experimental animal model suffering from cerebral ischemia (in words)” value in the series with AMPA receptor [4] is “useful”. As to `C=C(C)[C@H]1CN[C@H](C(=O)O)[C@H]1CC(=O)O` [kainic acid], the “action in neurotoxicity test (in words)” value in the series on neuronal culture system was “induces by itself significant neuronal death”.
